Legend:
[1] = tested on: huEGFRt^+ T cells; assay: ADCC of huEGFRt^+ T cells, 4-hour chromium release assay; type: cell-based, human
Text: A valuable feature of a cell surface selection/tracking marker would be its capacity to serve as a target for in vivo cell ablation.
^51Cr-labeled huEGFRt^+ T cells as the target cells and human GM-CSF activated fresh PBMCs as effectors were co-cultured.

[2] = tested on: transduced CTLL2 cells; assay: MTX resistance and selection of CD19CAR-huEGFRt-hDHFR^FS transduced CTLL2 cells; type: cell-based, murine; conditions: for huEGFRt^+ cells: 8 days
Procedure: CTLL2 T cells were first transduced with this CD19CAR-huEGFRt-hDHFR^FS lentiviral vector and evaluated for their resistance to MTX.
To further characterize the maximum dose of MTX that could be tolerated by selected CTLL2 cells, transduced CTLL2 cells that had been cultured in 0.1 μM MTX for 8 days were re-plated at a wider range of MTX concentrations (up to 0.75 μM).

[3] = tested on: non-transduced CTLL2 cells; assay: MTX effect on non-transduced CTLL2 cells; type: cell-based, murine; conditions: ≥0.05 μM MTX
Text: In the absence of MTX, the non-transduced and transduced CTLL2 cells expanded at an equivalent rate (21- and 27-fold respectively).

[4] = tested on: non-transduced primary human T cells; assay: MTX effect on non-transduced primary human T cells; type: cell-based; conditions: starting at concentrations as low as 0.025 μM MTX
Procedure: (§1) Applicants transduced primary human T cells with the same CD19CAR-huEGFRt-hDHFR^FS lentiviral vector. Purified CD62L^+CD45RO^+ T cells were used as a starting population based on their potential for persistence after adoptive transfer. Ten days after transduction, these T cells were cultured in varying concentrations of MTX and assessed for cell number and viability over time.

[5] = tested on: transduced primary human T cells (CD62L^+CD45RO^+); assay: MTX selection of CD19CAR-huEGFRt-hDHFR^FS transduced primary human T cells; type: cell-based
Procedure: as §1

Compound	triggering ADCC of huEGFRt^+ T cells [1]	huEGFRt^+ cells ([2]; 0.01 μM MTX) [%]	huEGFRt^+ cells ([2]; 0.025 μM MTX) [%]	huEGFRt^+ cells ([2]; 0.05 μM MTX) [%]	huEGFRt^+ cells ([2]; 0.1 μM MTX) [%]	expansion of transduced cells ([2]; MTX (0-0.1 μM) for 8 days) [fold]	survival of transduced cells ([2]; MTX (0-0.1 μM) for 8 days) [%]	expansion of transduced and pre-MTX selected cells ([2]; MTX concentrations up to 0.25 μM, pre-cultured in 0.1 μM MTX for 8 days)	non-transduced CTLL2 cell expansion and viability [3]	viability and fold-expansion of non-transduced primary human T cells [4]	CD19CAR^+ cells ([5]; 0.025 μM MTX, 10 days)	EGFRt^+ cells ([5]; 0.025 μM MTX, 10 days) [%]	CD19CAR^+ cells ([5]; 0.05 μM MTX, 10 days)	EGFRt^+ cells ([5]; 0.05 μM MTX, 10 days) [%]	viability of transduced T cells ([5]; 0.1 μM MTX) [%]	CD19CAR^+ cells ([5]; Day 6 of culture (Day 0: 18%)) [%]	EGFRt^+ cells ([5]; Day 6 of culture (Day 0: 28%)) [%]	CD19CAR^+ cells ([5]; Day 10 of culture) [%]	EGFRt^+ cells ([5]; Day 10 of culture) [%]
RITUXAN® (rituximab): CD20-specific mAb	no effect	–	–	–	–	–	–	–	–	–	–	–	–	–	–	–	–	–	–
CN(Cc1cnc2nc(N)nc(N)c2n1)c1ccc(C(=O)N[C@@H](CCC(=O)O)C(=O)O)cc1 [MTX, methotrexate]	–	49	93	98.5	99	7	80	90-100 fold	strong inhibition	strong inhibition	about 54%	~79	about 76%	~89	63	48	71	70	88
